Patent US5210193A, “Piperazine derivatives” (American Cyanamid Company, priority 1990, dated 1993)
Values after ≈ are worked out from the molar mass of the structure shown.

Assays:
Assay in all cases: in vitro antibacterial MIC, agar plate dilution
Type in all cases: cell-based
[1] = test system: Enterobacter aerogenes VGH 84-36; details: Klebsiella aerogenes, VGH8436, 18 hours, 35° C., read-out: MIC
Protocol: (§1) The in vitro antimicrobial spectrum of the compounds of ths invention were determined by the agar plate dilution method with Mueller-Hinton agar and an inoculum of each test organism of approximately 10^4 colony forming units delivered by the Steers replicating device. The minimal inhibitory concentration (MIC) in mcg/ml is defined as the lowest concentration of test compound that inhibited visible growth after 18 hours incubation at 35° C. Results are given in Table I, with the test compounds identified by the number of their hereinafter described examples.

[2] = test system: Enterobacter cloacae VGH 84-37; details: Enterobacter cloacae, VGH8437, 18 h, 35° C., read-out: MIC
Protocol: as §1

[3] = test system: Escherichia coli ATCC 25922; details: Escherichia coli, ATCC25922, 18 h, 35° C., read-out: MIC
Protocol: as §1

[4] = test system: Escherichia coli CMC 84-11; details: Escherichia coli, CMC8411, 18 h, 35° C., read-out: MIC
Protocol: as §1

[5] = test system: Klebsiella pneumoniae AD; details: Klebsiella pneumoniae, 18 h, 35° C., read-out: MIC
Protocol: as §1

[6] = test system: Klebsiella pneumoniae MOR 84-4; details: Klebsiella pneumoniae, MOR844, 18 h, 35° C., read-out: MIC
Protocol: as §1

[7] = test system: Morganella morganii VGH 84-11; details: VGH8411, 18 hours, 35° C., read-out: MIC
Protocol: as §1

[8] = test system: Proteus rettgeri CMC 84-41; details: Providencia rettgeri, CMC8441, 18 h, 35° C., read-out: MIC
Protocol: as §1

[9] = test system: Pseudomonas aeruginosa VGH 84-4; details: Pseudomonas aeruginosa, VGH844, 18 h, 35° C., read-out: MIC
Protocol: as §1

[10] = test system: Staphylococcus aureus ATCC 25913; details: ATCC25913, 18 hours, 35° C.
Protocol: as §1

[11] = test system: Staphylococcus aureus Smith; details: Staphylococcus aureus, 18 h, 35° C., read-out: MIC
Protocol: as §1

[12] = test system: Streptococcus faecalis ATTC 29212; details: Enterococcus faecalis, ATTC29212, 18 hours, 35° C., read-out: MIC
Protocol: as §1

MIC [1] [µg/mL] | MIC [2] [µg/mL] | MIC [3] [µg/mL] | MIC [4] [µg/mL] | MIC [5] [µg/mL] | MIC [6] [µg/mL] | MIC [7] [µg/mL] | MIC [8] [µg/mL] | MIC [9] [µg/mL] | MIC [10] [µg/mL] | MIC [11] [µg/mL] | MIC [12] [µg/mL] | SMILES
1 (≈ 2.3 µM) | 0.5 (≈ 1.15 µM) | 0.25 (≈ 0.574 µM) | 0.25 (≈ 0.574 µM) | 0.5 (≈ 1.15 µM) | 1 (≈ 2.3 µM) | 0.5 (≈ 1.15 µM) | 0.5 (≈ 1.15 µM) | 8 (≈ 18.4 µM) | ≤ 0.12 | ≤ 0.12 | 1 (≈ 2.3 µM) | CCn1cc(C(=O)O)c(=O)c2cc(F)c(N3CCNC(c4cc5ccccc5o4)C3)cc21 (stereo not drawn) [Example 46, 7-[3-(2-Benzofuranyl)-1-piperazinyl]-1-ethyl-6-fluoro-1,4-dihydro-4-oxo-3-quinolinecarboxylic acid]
2 (≈ 4.66 µM) | 2 (≈ 4.66 µM) | 1 (≈ 2.33 µM) | 1 (≈ 2.33 µM) | 1 (≈ 2.33 µM) | 2 (≈ 4.66 µM) | 2 (≈ 4.66 µM) | 2 (≈ 4.66 µM) | 32 (≈ 74.5 µM) | 0.25 (≈ 0.582 µM) | 0.25 (≈ 0.582 µM) | 0.25 (≈ 0.582 µM) | CCn1cc(C(=O)O)c(=O)c2cc(F)c(N3CCNC(c4cc(C)sc4C)C3)cc21 (stereo not drawn) [Example 48, 7-[3-(2,5-Dimethyl-3-thienyl)-1-piperazinyl]-1-ethyl-6-fluoro-1,4-dihydro-4-oxo-3-quinolinecarboxylic acid]
64 (≈ 136 µM) | 16 (≈ 34 µM) | 8 (≈ 17 µM) | 8 (≈ 17 µM) | 8 (≈ 17 µM) | 16 (≈ 34 µM) | 8 (≈ 17 µM) | 8 (≈ 17 µM) | > 256 | 1 (≈ 2.13 µM) | 0.5 (≈ 1.06 µM) | 32 (≈ 68 µM) | CCn1cc(C(=O)O)c(=O)c2cc(F)c(N3CCNC(c4cc(Cl)sc4Cl)C3)cc21 (stereo not drawn) [Example 51]

The next lines start with the compound.

SMILES | MIC [1] [µg/mL] | MIC [2] [µg/mL] | MIC [3] [µg/mL] | MIC [4] [µg/mL] | MIC [5] [µg/mL] | MIC [6] [µg/mL] | MIC [7] [µg/mL] | MIC [8] [µg/mL] | MIC [9] [µg/mL] | MIC [10] [µg/mL] | MIC [11] [µg/mL] | MIC [12] [µg/mL]
CCn1cc(C(=O)O)c(=O)c2cc(F)c(N3CCN(C)C(CF)C3)cc21 (stereo not drawn) [Example 25, 1-Ethyl-6-fluoro-7-[3-(fluoromethyl)-4-methyl-1-piperazinyl]-1,4-dihydro-4-oxo-3-quinolinecarboxylic acid] | 2 (≈ 5.47 µM) | 1 (≈ 2.74 µM) | 0.25 (≈ 0.684 µM) | 0.5 (≈ 1.37 µM) | 0.5 (≈ 1.37 µM) | 1 (≈ 2.74 µM) | 1 (≈ 2.74 µM) | 1 (≈ 2.74 µM) | 2 (≈ 5.47 µM) | 0.5 (≈ 1.37 µM) | 0.5 (≈ 1.37 µM) | 8 (≈ 21.9 µM)
CCn1cc(C(=O)O)c(=O)c2cc(F)c(N3CCNC(c4ccn(S(=O)(=O)c5ccccc5)c4)C3)cc21 (stereo not drawn) [Example 44, 1-Ethyl-6-fluoro-1,4-dihydro-4-oxo-7-[3-[1-(phenylsulfonyl)-1H-pyrrol-3-yl]-1-piperazinyl]-3-quinolinecarboxylic acid] | 16 (≈ 30.5 µM) | 4 (≈ 7.63 µM) | 2 (≈ 3.81 µM) | 4 (≈ 7.63 µM) | 4 (≈ 7.63 µM) | 8 (≈ 15.3 µM) | 4 (≈ 7.63 µM) | 4 (≈ 7.63 µM) | > 256 | 0.5 (≈ 0.953 µM) | 0.25 (≈ 0.477 µM) | 4 (≈ 7.63 µM)
CCn1cc(C(=O)O)c(=O)c2cc(F)c(N3CCN(C)C(c4ccn(S(=O)(=O)c5ccccc5)c4)C3)cc21 (stereo not drawn) [Example 49] | 256 (≈ 475 µM) | 256 (≈ 475 µM) | 32 (≈ 59.4 µM) | 64 (≈ 119 µM) | 64 (≈ 119 µM) | 256 (≈ 475 µM) | 256 (≈ 475 µM) | 256 (≈ 475 µM) | > 256 | 1 (≈ 1.86 µM) | 0.5 (≈ 0.928 µM) | 64 (≈ 119 µM)
